Measured values from US9271978B2 (Zenith Epigenetics Corp., priority 2012, dated 2016).

What was measured:
[1] = biological target: T1, Brd4 bromodomain 1 (BRD4(1)) (Homo sapiens, UniProt O60885); assay: Inhibition of tetra-acetylated histone H4 binding to Brd4 bromodomain 1 (TR-FRET); set-up: key: Active: Compounds with an IC50 value less than 30 μM were deemed to be active.; Not Active: Compounds with an IC50 value less than 30 μM were deemed to be active; conditions: tetra-acetylated histone H4 peptide, active = IC50 <30 μM
T1 construct: Illustrative results with the first bromodomain of Brd4; made in house; host or cells: E. coli BL21 (DE3)
Procedure, shortened: (§1)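 N-terminally His-tagged bromodomains (200 nM), expressed in E. coli, were incubated with biotinylated tetra-acetylated histone H4 peptide (25-50 nM), Eu-cryptate streptavidin and XL665 anti-His antibody in HEPES pH 7.4 buffer with KF, 0.2% DMSO, 2 h at room temperature. Inhibition read as decreased 665/620 nm TR-FRET; IC50 from dose-response curves.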

[2] = test system: human AML MV-4-11 (CRL-9591) cells; assay: Inhibition of cell proliferation in MV4-11 cells; format: cell-based; set-up: key: Active: Compounds with an IC50 value less than 30 μM were deemed to be active.; Not Active: Compounds with an IC50 value less than 30 μM were deemed to be active; conditions: human AML MV-4-11 cells, 72 h; active = IC50 <30 μM
Procedure, shortened: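 Exponentially growing MV-4-11 cells (5×10^4/well) were treated immediately with two-fold dilutions of compound from 30 μM to 0.2 μM, in triplicate, for 72 h at 37° C, 5% CO2. Viability was measured by MTS absorbance at 490 nm after 3–4 h. Proliferation relative to DMSO after blank correction gave IC50.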

hIL-6 mRNA = assay: Inhibition of hIL-6 mRNA transcription in U937 cells; format: cell-based, human; set-up: key: Active: Compounds with an IC50 value less than 30 μM were deemed to be active.; Not Active: Compounds with an IC50 value less than 30 μM were deemed to be active; conditions: LPS stimulation, active = IC50 <30 μM
Procedure, shortened: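 U937 cells differentiated 3 days with 60 ng/mL PMA, pretreated 1 h with compound, then stimulated with 1 ug/mL E. coli LPS for 3 h at 37° C. hIL-6 mRNA quantified by one-step qRT-PCR, Ct normalized to internal control, expressed as fold induction relative to control.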

ApoA-I mRNA = assay: Up-regulation of hApoA-1 mRNA transcription in Huh7 cells; format: cell-based, human; set-up: key: Active: Compounds with an EC170 value less than 30 μM were deemed to be active; conditions: 48 h treatment, ApoA-I mRNA by real-time PCR, Active = EC170 less than 30 μM
Procedure, shortened: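 Huh7 cells treated with compound for 48 h. ApoA-I mRNA was then quantified in captured mRNA by one-step real-time RT-PCR. Fold induction calculated from Ct values relative to the matching DMSO control; EC170 is the concentration for 170% of control expression.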

c-myc = assay: Inhibition of c-myc expression in MV4-11 cells (mRNA, real-time PCR); format: cell-based; set-up: key: Active: Compounds with an IC50 value less than 30 μM were deemed to be active.; Not Active: Compounds with an IC50 value less than 30 μM were deemed to be active; conditions: Human AML MV4-11 cells, 3 h incubation
Procedure, shortened: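 MV4-11 cells (2.5×10^4) treated with compound or 0.1% DMSO for 3 h at 37 °C. c-myc mRNA measured by RT real-time PCR duplexed with cyclophilin. IC50 from dose–response curve.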

[3] = biological target: T2, second bromodomain of Brd2 (BRD2(2)) (Homo sapiens, UniProt P25440); assay: Inhibition of tetra-acetylated histone H4 binding to Brd2 bromodomain 2 (TR-FRET); set-up: key: Active: Compounds with an IC50 value less than 30 μM were deemed to be active.; Not Active: Compounds with an IC50 value less than 30 μM were deemed to be active; conditions: tetra-acetylated histone H4 peptide, active = IC50 <30 μM
T2 construct: made in house; host or cells: E. coli BL21 (DE3)
Procedure, shortened: as §1

T2 sequence (P25440 344-453 limits assumed): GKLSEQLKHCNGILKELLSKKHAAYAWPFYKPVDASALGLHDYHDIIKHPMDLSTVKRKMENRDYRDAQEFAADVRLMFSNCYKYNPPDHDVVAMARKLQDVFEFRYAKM

Cc1noc(C)c1-c1ccc(=O)n(CCOc2ccccc2)c1 [Example 51, 5-(3,5-Dimethylisoxazol-4-yl)-1-(2-phenoxyethyl)pyridin-2(1H)-one]
Not Active: Cell Proliferation activity (IC50 <30 μM) [2] | c-myc activity (IC50 <30 μM) (c-myc)
Active: FRET activity (IC50 <30 μM) BRD4(1) [1] | IL-6 activity (IC50 <30 μM) (hIL-6 mRNA) | ApoA-1 activity (EC170 <30 μM) (ApoA-I mRNA) | FRET activity (IC50 <30 μM) BRD2(2) [3]

COc1cc(-c2ccc(=O)n(Cc3ccccc3)c2)cc(OC)c1OC [Example 52, 1-Benzyl-5-(3,4,5-trimethoxyphenyl)pyridin-2(1H)-one]
Not Active: Cell Proliferation activity (IC50 <30 μM) [2] | c-myc activity (IC50 <30 μM) (c-myc)
Active: FRET activity (IC50 <30 μM) BRD4(1) [1] | IL-6 activity (IC50 <30 μM) (hIL-6 mRNA) | ApoA-1 activity (EC170 <30 μM) (ApoA-I mRNA) | FRET activity (IC50 <30 μM) BRD2(2) [3]

COc1cc(-c2ccc(=O)n(Cc3ccccc3C#N)c2)cc(OC)c1OC [Example 53, 2-((2-Oxo-5-(3,4,5-trimethoxyphenyl)pyridin-1(2H)-yl)methyl)benzonitrile]
Active: FRET activity (IC50 <30 μM) BRD4(1) [1] | Cell Proliferation activity (IC50 <30 μM) [2] | IL-6 activity (IC50 <30 μM) (hIL-6 mRNA) | ApoA-1 activity (EC170 <30 μM) (ApoA-I mRNA) | FRET activity (IC50 <30 μM) BRD2(2) [3]
Not Active: c-myc activity (IC50 <30 μM) (c-myc)

COc1cc(Nc2ccc(=O)n(Cc3ccccc3)n2)cc(OC)c1OC [Example 54, 2-Benzyl-6-((3,4,5-trimethoxyphenyl)amino)pyridazin-3(2H)-one]
Active: FRET activity (IC50 <30 μM) BRD4(1) [1] | Cell Proliferation activity (IC50 <30 μM) [2] | IL-6 activity (IC50 <30 μM) (hIL-6 mRNA) | ApoA-1 activity (EC170 <30 μM) (ApoA-I mRNA) | c-myc activity (IC50 <30 μM) (c-myc) | FRET activity (IC50 <30 μM) BRD2(2) [3]

Cc1noc(C)c1-c1ccc(=O)n(Cc2ccc(Cl)cn2)c1 [Example 55, 1-((5-Chloropyridin-2-yl)methyl)-5-(3,5-dimethylisoxazol-4-yl)pyridin-2(1H)-one]
Active: FRET activity (IC50 <30 μM) BRD4(1) [1] | Cell Proliferation activity (IC50 <30 μM) [2] | IL-6 activity (IC50 <30 μM) (hIL-6 mRNA) | ApoA-1 activity (EC170 <30 μM) (ApoA-I mRNA) | c-myc activity (IC50 <30 μM) (c-myc) | FRET activity (IC50 <30 μM) BRD2(2) [3]

COc1ccc(Nc2ccc(=O)n(Cc3ccccc3)n2)cc1OC [Example 60, 2-Benzyl-6-((3,4-dimethoxyphenyl)amino)pyridazin-3(2H)-one]
Not Active: Cell Proliferation activity (IC50 <30 μM) [2] | c-myc activity (IC50 <30 μM) (c-myc)
Active: FRET activity (IC50 <30 μM) BRD4(1) [1] | IL-6 activity (IC50 <30 μM) (hIL-6 mRNA) | ApoA-1 activity (EC170 <30 μM) (ApoA-I mRNA) | FRET activity (IC50 <30 μM) BRD2(2) [3]

Cc1noc(C)c1-c1cc(C)c(=O)n(Cc2ccccc2)c1 [Example 66, 1-Benzyl-5-(3,5-dimethylisoxazol-4-yl)-3-methylpyridin-2(1H)-one]
Active: FRET activity (IC50 <30 μM) BRD4(1) [1] | Cell Proliferation activity (IC50 <30 μM) [2] | IL-6 activity (IC50 <30 μM) (hIL-6 mRNA) | ApoA-1 activity (EC170 <30 μM) (ApoA-I mRNA) | c-myc activity (IC50 <30 μM) (c-myc) | FRET activity (IC50 <30 μM) BRD2(2) [3]

Cc1noc(C)c1-c1cc(C(N)=O)c(=O)n(Cc2ccccc2)c1 [Example 230, 1-Benzyl-5-(3,5-dimethylisoxazol-4-yl)-2-oxo-1,2-dihydropyridine-3-carboxamide]
Active: FRET activity (IC50 <30 μM) BRD4(1) [1] | Cell Proliferation activity (IC50 <30 μM) [2] | IL-6 activity (IC50 <30 μM) (hIL-6 mRNA) | ApoA-1 activity (EC170 <30 μM) (ApoA-I mRNA) | c-myc activity (IC50 <30 μM) (c-myc)

Cc1noc(C)c1-c1cc(N)c(=O)n(Cc2ccc(Cl)cc2)n1 [Example 233, 4-amino-2-(4-chlorobenzyl)-6-(3,5-dimethylisoxazol-4-yl)pyridazin-3(2H)-one]
Active: FRET activity (IC50 <30 μM) BRD4(1) [1] | Cell Proliferation activity (IC50 <30 μM) [2] | IL-6 activity (IC50 <30 μM) (hIL-6 mRNA) | ApoA-1 activity (EC170 <30 μM) (ApoA-I mRNA) | c-myc activity (IC50 <30 μM) (c-myc)
